{
  "source": "patent US10435371B2",
  "about": "“Multifunctional aminoquinoline therapeutic agent” (LOHOCLA RESEARCH CORPORATION, priority 2014, dated 2019)",
  "key": {"cannabinoid CB1 receptor": {"target": "T1, cannabinoid CB1 receptor (Homo sapiens, UniProt P21554)", "T1 construct": "expressed in transfected cells; host or cells: HeLa (ATCC), calcium phosphate transient transfection", "T1 sequence (P21554 whole entry)": "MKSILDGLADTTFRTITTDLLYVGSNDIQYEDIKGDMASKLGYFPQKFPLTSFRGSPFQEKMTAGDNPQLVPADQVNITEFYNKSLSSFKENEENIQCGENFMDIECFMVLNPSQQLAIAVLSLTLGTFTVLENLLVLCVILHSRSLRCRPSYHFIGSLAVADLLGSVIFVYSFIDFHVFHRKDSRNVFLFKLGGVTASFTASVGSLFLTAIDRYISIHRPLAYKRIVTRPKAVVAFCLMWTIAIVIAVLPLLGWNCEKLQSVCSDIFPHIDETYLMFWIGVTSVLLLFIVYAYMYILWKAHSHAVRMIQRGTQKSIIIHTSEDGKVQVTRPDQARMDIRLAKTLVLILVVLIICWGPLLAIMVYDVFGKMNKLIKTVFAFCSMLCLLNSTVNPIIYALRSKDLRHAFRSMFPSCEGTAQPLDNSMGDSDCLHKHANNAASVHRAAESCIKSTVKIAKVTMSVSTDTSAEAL", "experiment": "cAMP accumulation, HeLa cells transfected with CB1 receptor, D1 receptor and AC7", "type": "cell-based", "details": "for Effect on cAMP accumulation in the presence of dopamine: CB1 receptor, D1, AC7, DCUK-OEt 10 μM, ACEA 10 μM, FIG. 1"}, "ethanol dependent rats": {"tested_on": "ethanol dependent rats", "experiment": "Operant responding for alcohol in ethanol vapor-exposed dependent rats", "type": "in vivo, rat", "details": "FIG. 18", "from_the_text": "This example illustrates that ethanol dependent rats are motivated to work for ethanol reward during a period of forced abstinence and that DCUK-OEt reduces responding for the alcohol reward.\nThe methods used in this study are extensively described in (Vendruscolo et al., 2012). The rats were first trained to self-administer ethanol in an operant chamber. The rats were given free-choice access to alcohol (10% w/v) and water for 1 day in their home cages to habituate them to the taste of alcohol. The rats were then subjected to an overnight session in the operant chambers with access to one lever that delivered water (FR1). Food was available ad libitum during this training. After 1 day off, the rats were subjected to a 2 hour session (FR1) for 1 day and a 1 hour session (FR1) the next day, with one lever delivering alcohol. All of the subsequent sessions lasted 30 minutes, and two levers were available (left lever: water; right lever: alcohol). Once trained, the rats were made dependent by chronic, intermittent exposure to alcohol vapors (Gilpin et al., 2008). They underwent cycles of 14 hours of ethanol exposure (blood alcohol levels during vapor exposure ranged between 150 and 250 mg %) and 10 hours in the absence of ethanol vapor, during which behavioral testing for acute withdrawal occurred (i.e., 6-8 hours after vapor was turned off, when brain and blood alcohol levels were negligible). Nondependent rats were those not exposed to alcohol vapor. Pharmacological testing occurred after at least 2 months of vapor exposure, when full dependence was observed. DCUKA-OEt was administered i.p. at the doses specified in FIG. 18, sixty minutes prior to placing the animal in the operant chamber. The vehicle for DCUK-OEt was injected in certain animals as a control."}, "[1]": {"target": "GABA site, GABA-A Receptor", "experiment": "PDSP radioligand displacement, [^3H]Muscimol", "set-up": "species or system rat", "details": "read-out: Binding constant Ki, GABA site, GABA-A Receptor"}, "[2]": {"target": "T2, GABA-A receptors (α1, β2, γ2s subunits) (UniProt P18508+P47870+P62813)", "T2 construct": "expressed in transfected cells; host or cells: Xenopus laevis oocytes injected with capped cRNAs (α1:β2:γ2s 2:2:20 ng)", "T2 sequence (P62813 28-455)": "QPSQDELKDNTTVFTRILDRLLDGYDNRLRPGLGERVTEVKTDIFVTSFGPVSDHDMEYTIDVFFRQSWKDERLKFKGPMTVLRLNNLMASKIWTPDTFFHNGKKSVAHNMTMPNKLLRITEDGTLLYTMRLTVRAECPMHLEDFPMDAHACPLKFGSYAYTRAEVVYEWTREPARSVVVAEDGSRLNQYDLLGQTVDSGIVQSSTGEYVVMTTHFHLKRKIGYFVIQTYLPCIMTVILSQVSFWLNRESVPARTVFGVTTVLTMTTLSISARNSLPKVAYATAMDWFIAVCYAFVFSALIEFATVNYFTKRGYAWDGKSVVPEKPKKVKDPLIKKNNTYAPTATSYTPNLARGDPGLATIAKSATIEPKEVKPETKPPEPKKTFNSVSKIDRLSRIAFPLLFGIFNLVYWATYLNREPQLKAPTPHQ", "T2 sequence (P47870 26-474 isoform P47870-1 limits assumed)": "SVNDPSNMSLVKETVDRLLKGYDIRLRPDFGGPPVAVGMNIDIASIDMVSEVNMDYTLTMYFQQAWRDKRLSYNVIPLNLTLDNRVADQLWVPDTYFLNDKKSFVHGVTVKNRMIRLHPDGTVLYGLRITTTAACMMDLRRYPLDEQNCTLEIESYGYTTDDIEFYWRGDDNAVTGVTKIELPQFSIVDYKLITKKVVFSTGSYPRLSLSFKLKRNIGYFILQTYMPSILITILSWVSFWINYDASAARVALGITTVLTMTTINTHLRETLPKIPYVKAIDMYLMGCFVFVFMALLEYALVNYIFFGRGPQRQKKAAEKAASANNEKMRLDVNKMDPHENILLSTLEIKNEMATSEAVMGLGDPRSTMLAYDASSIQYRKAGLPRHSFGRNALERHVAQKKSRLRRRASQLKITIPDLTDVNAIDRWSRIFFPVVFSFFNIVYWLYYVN", "T2 sequence (P18508 39-466)": "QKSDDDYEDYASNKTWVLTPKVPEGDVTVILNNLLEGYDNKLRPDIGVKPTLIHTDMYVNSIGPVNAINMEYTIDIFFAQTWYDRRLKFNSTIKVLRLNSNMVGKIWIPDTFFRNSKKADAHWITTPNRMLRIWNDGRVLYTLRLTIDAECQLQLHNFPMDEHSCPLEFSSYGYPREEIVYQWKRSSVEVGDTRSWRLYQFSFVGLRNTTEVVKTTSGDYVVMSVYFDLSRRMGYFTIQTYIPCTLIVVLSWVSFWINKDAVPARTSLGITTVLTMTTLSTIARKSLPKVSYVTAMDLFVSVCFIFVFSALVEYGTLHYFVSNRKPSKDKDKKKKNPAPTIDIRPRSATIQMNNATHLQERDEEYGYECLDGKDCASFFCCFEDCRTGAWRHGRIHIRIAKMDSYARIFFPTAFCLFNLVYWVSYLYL", "experiment": "Two-electrode voltage clamp, GABA-A receptors expressed in Xenopus oocytes", "type": "cell-based, rat α1 and γ2s, human β2", "details": "for Efficacy among five DCUK derivatives: potentiation of GABA response, FIG. 4C", "experimental": "Xenopus laevis frogs were obtained from Nasco (Fort Atkinson, Wis., USA). The complementary DNAs encoding the GABAA subunits rat α1 and γ2s and human β2 were provided by Dr. M. H. Akabas and Dr. Paul Whiting, respectively. The in vitro transcription of α1, β2, and γ2s subunits was performed using mMessage mMachine® (Life Technologies, Grand Island, N.Y.). After isolation of Xenopus laevis oocytes, they were injected with capped complementary RNAs encoding α1, β2, and γ2s subunits in a ratio 2:2:20 ng. The injected oocytes were incubated at 15° C. in sterilized Barth's solution [MBS; composition: 88 mM NaCl, 1 mM KCl, 10 mM HEPES, 0.82 mM MgSO4, 2.4 mM NaHCO3, 0.91 mM CaCl2), and 0.33 mM Ca(NO3)2, pH 7.5] for 3-5 days before recording. All surgery was performed according to an approved institutional protocol. The responses of GABAARs expressed in oocytes were studied through two-electrode voltage clamp (Oocyte Clamp OC-725C, Warner Instruments, Hamden, Conn.), recording through a POWERLAB 4/30 system (ADInstruments, Colorado Springs, Colo.). The oocyte was placed in a chamber perfused with MBS, and voltage-clamped at −70 mV."}, "[3]": {"tested_on": "rats treated with Complete Freund's Adjuvant", "experiment": "Combination with morphine, CFA-induced thermal hyperalgesia (radiant heat paw withdrawal test)", "type": "in vivo, rat", "details": "thermal hyperalgesia after CFA", "description": "Thermal Hypersensitivity Test (Radiant Heat Paw Withdrawal Test). Rats were placed in clear plastic chambers on a glass surface and were habituated for 15 minutes before testing. Thermal sensitivity was measured by using paw withdrawal latency to a radiant heat stimulus. A radiant heat source (i.e., infrared) was activated with a timer and focused onto the plantar surface of the left hind paw. A motion detector that halted both lamp and timer when the paw was withdrawn determined paw withdrawal latency. The latencies were measured before and after drug or vehicle administration. A maximum cutoff of 33 seconds was used to prevent tissue damage."}, "[4]": {"tested_on": "alcohol-dependent male Wistar rats", "experiment": "Alcohol deprivation model of relapse drinking in alcohol-dependent rats", "type": "in vivo, rat", "details": "for Relapse drinking (alcohol intake after deprivation): FIG. 17", "experimental": "This model is thoroughly described in a paper by (Spanagel and Holter, 1999). The model consists of a conditioning phase where individually housed male Wistar rats are allowed ad libitum access to food and 0, 5, 10 and 20% alcohol solutions in a four-bottle choice paradigm. The rats are weighed every 3rd and 4th day and food and fluid consumption is measured. The positions of bottles are changed once a week and after two months of continuous alcohol access, rats are deprived of alcohol for two weeks. After the deprivation phase, all alcohol solutions are presented again for 5 weeks and the procedure is repeated for ˜1 year. At this point an alcohol deprivation phase is instituted. Pre-deprivation (baseline) drinking is recorded for 3-4 days and then all alcohol is taken from the animals and they are only given water to drink for two weeks. Following alcohol deprivation, alcohol intake (total grams of ethanol/kg body weight) and water intake (ml/kg body weight) are measured daily. The alcohol preference ratio is calculated as (ethanol consumption [g/kg])/(water consumption [ml/kg]).\nFor this experiment, animals were divided into groups of 6-8 rats such that the mean baseline total alcohol intake was approximately the same (˜2.8 g/kg/day) across all groups. Baseline drinking was monitored followed by 14 days of alcohol deprivation. Each animal then received i.p. injections of DCUK-OEt twice daily at 12 hour intervals starting at 7 PM prior to the reintroduction of ethanol for a total of 3 (20 mg/kg) or 5 injections (75 mg/kg). Acamprosate, an already marketed agent for reducing relapse, was used as a positive control and four doses of 50 mg/kg or 200 mg/kg were injected over a two-day period. Alcohol bottles were re-introduced after the first (acamprosate) or second (DCUK-OEt) injection."}, "[5]": {"tested_on": "rats treated with cisplatin", "experiment": "Reversal of cisplatin-induced neuropathic pain (von Frey mechanical pain threshold)", "type": "in vivo, rat", "details": "cisplatin i.p. 7 mg/kg total, day 14; 30 mg/kg oral (equimolar to DCUKA and BCUKA); 1 and 2 hours; FIG. 6"}, "[6]": {"tested_on": "rats treated with Complete Freund's Adjuvant", "experiment": "Naltrindole reversal of the effect of DCUKA on CFA-induced neuropathic pain", "type": "in vivo, rat", "experimental": "Rats were tested for baseline mechanical pain threshold (von Frey test) and given an intraplantar injection of Complete Freunds Adjuvant (CFA) in the left hind paw."}, "delta opiate receptor [7]": {"target": "T3, delta opiate receptor (Homo sapiens, UniProt P41143)", "T3 sequence (P41143 whole entry)": "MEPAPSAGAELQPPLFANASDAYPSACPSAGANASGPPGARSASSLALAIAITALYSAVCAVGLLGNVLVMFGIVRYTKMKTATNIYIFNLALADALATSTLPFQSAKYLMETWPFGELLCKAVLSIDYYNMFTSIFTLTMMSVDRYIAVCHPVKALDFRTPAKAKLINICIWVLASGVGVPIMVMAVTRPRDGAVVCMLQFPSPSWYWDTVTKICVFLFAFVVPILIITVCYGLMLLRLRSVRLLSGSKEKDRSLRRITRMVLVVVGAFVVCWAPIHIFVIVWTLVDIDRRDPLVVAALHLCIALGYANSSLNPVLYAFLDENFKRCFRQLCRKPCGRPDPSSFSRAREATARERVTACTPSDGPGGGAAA", "experiment": "cAMP accumulation, HeLa cells transfected with D1 receptor, DOR and AC5", "type": "cell-based", "set-up": "expressed in transfected cells", "details": "not shown"}, "delta opiate receptor [8]": {"target": "T3, delta opiate receptor", "experiment": "cAMP accumulation, HEK293 cells transfected with DA receptor, delta opiate receptor and AC7", "type": "cell-based", "set-up": "expressed in transfected cells; host or cells: HEK293 (ATCC), calcium phosphate transient transfection", "details": "naltrindole 10 μM"}, "[9]": {"tested_on": "rats treated with streptozotocin", "experiment": "Combination with aspirin, STZ-induced neuropathic pain (von Frey)", "type": "in vivo, rat", "details": "aspirin 25 mg/kg, 60 min before test; FIG. 16", "experimental": "After administration of streptozotocin (STZ) as described in Example 5, rats were tested for allodynia using a von Frey apparatus. Sixty minutes prior to testing, rats were divided into four groups. Group 1 received vehicle; group 2 received DCUKA; group 3 received aspirin; and group 4 received a combination of DCUKA and aspirin."}, "[10]": {"tested_on": "rats treated with Complete Freund's Adjuvant", "experiment": "Combination with morphine, CFA-induced pain, mechanical pain threshold", "type": "in vivo, rat", "details": "FIG. 15 Panel A"}},
  "data": [
    {"smiles": "CCCCC/C=C\\C/C=C\\C/C=C\\C/C=C\\CCCC(=O)NCCCl", "note": "[ACEA, reference compound]", "values": [
      {"measurement": "Effect on cAMP accumulation in the presence of dopamine", "setting": "cannabinoid CB1 receptor", "value": "increased the accumulation of cAMP"}
    ]},
    {"smiles": "CCOC(=O)c1cc(NC(=O)N(c2ccccc2)c2ccccc2)c2c(Cl)cc(Cl)cc2n1", "note": "[DCUK-OEt]", "values": [
      {"measurement": "Alcohol self-administration", "setting": "ethanol dependent rats; 20 mg/kg i.p., 60 min before session, ethanol vapor-exposed rats", "value": "brought the ethanol vapor exposed rats down to the same level of self-administration as non-ethanol pretreated control rats"},
      {"measurement": "Lever pressing for ethanol", "setting": "ethanol dependent rats; 35 and 50 mg/kg i.p., alcohol-dependent rats", "value": "reduced lever pressing for ethanol to even lower levels"},
      {"measurement": "Lever pressing for water", "setting": "ethanol dependent rats; all doses tested, alcohol dependent rats", "value": "No effect"},
      {"measurement": "Character of action at the CB1 cannabinoid receptor", "setting": "cannabinoid CB1 receptor; AC7, alone and together with ACEA", "value": "weak partial agonist"},
      {"measurement": "Effect on cAMP accumulation in the presence of dopamine", "setting": "cannabinoid CB1 receptor", "value": "significant increase in cAMP accumulation"},
      {"measurement": "Ki", "setting": "[1]", "value": "1.7 ± 0.3", "unit": "µM"},
      {"measurement": "Character of action at the GABA-A receptor", "setting": "[2]; FIG. 4A", "value": "positive allosteric modulators (PAM)"},
      {"measurement": "GABA-induced chloride currents", "setting": "[2]; co-applied with EC10 GABA, FIG. 4A", "value": "significantly enhanced GABA-induced currents"},
      {"measurement": "Efficacy among five DCUK derivatives", "setting": "[2]", "value": "most efficacious"},
      {"measurement": "Chloride currents, compound alone", "setting": "[2]; without GABA, FIG. 4A", "value": "no effect on chloride currents by themselves"},
      {"measurement": "Antihyperalgesic response", "setting": "[3]; 6.4 mg of DCUK-OEt combined with 0.2 mg/kg morphine", "value": 40, "unit": "%"},
      {"measurement": "Relapse drinking (alcohol intake after deprivation)", "setting": "[4]; 20 mg/kg i.p. twice daily, 3 injections", "value": "transient, but significant, reduction in relapse drinking"},
      {"measurement": "Water consumption", "setting": "[4]; 75 mg/kg DCUK-OEt, data not shown", "value": "increased consumption of water"},
      {"measurement": "Relapse drinking (alcohol intake after deprivation)", "setting": "[4]; 75 mg/kg i.p. twice daily, 5 injections", "value": "almost complete abolition of alcohol intake"}
    ]},
    {"smiles": "CCCC(=O)c1cc(NC(=O)N(c2ccccc2)c2ccccc2)c2c(Cl)cc(Cl)cc2n1", "note": "[DCUK-butanone, 3-(2-Butyryl-5,7-dichloroquinolin-4-yl)-1,1-diphenylurea]", "values": [
      {"measurement": "Efficacy among five DCUK derivatives", "setting": "[2]", "value": "most efficacious"}
    ]},
    {"smiles": "NCC1(CC(=O)O)CCCCC1", "note": "[Gabapentin, gabapentin, reference compound]", "values": [
      {"measurement": "Mechanical pain threshold, ratio to baseline", "setting": "[5]", "value": "did not significantly reverse"}
    ]},
    {"smiles": "Oc1ccc2c3c1O[C@H]1c4[nH]c5ccccc5c4C[C@@]4(O)[C@@H](C2)N(CC2CC2)CC[C@]314", "note": "[Naltrindole, reference compound]", "values": [
      {"measurement": "Effect of intraplantar naltrindole on the DCUKA effect", "setting": "[6]; Naltrindole 10 μg per paw s.c. 45 min after DCUKA 50 mg/kg oral, tested 15 min later", "value": "reversed the anti-allodynic effect of DCUKA"},
      {"measurement": "Effect of naltrindole alone on pain threshold", "setting": "[6]; Naltrindole 10 μg per paw with vehicle", "value": "no effect on its own"},
      {"measurement": "Effect of DOR antagonist on the DCUKA inhibition of cAMP accumulation", "setting": "delta opiate receptor [7]", "value": "reversed"},
      {"measurement": "Effect of DOR antagonist on the BCUKA-induced cAMP increase", "setting": "delta opiate receptor [8]", "value": "reversed"}
    ]},
    {"smiles": "CC(=O)NCCCS(=O)(=O)O", "note": "[acamprosate, reference compound]", "values": [
      {"measurement": "Relapse drinking (alcohol intake after deprivation)", "setting": "[4]; acamprosate 50 mg/kg, four doses over two days, positive control", "value": "transient, but significant, reduction in relapse drinking"}
    ]},
    {"smiles": "CC(=O)Oc1ccccc1C(=O)O", "note": "[aspirin, reference compound]", "values": [
      {"measurement": "Effect on allodynia, alone", "setting": "[9]", "value": "do not have any significant effect on allodynia"}
    ]},
    {"smiles": "CN1CC[C@]23c4c5ccc(O)c4O[C@H]2[C@@H](O)C=C[C@H]3[C@H]1C5", "note": "[morphine, reference compound]", "values": [
      {"measurement": "Analgesia, each agent alone at the dose used for the combination", "setting": "[10]", "value": "ineffective in producing analgesia"},
      {"measurement": "Antihyperalgesic response", "setting": "[3]; morphine alone 0.2 mg/kg", "value": "~20", "unit": "%"}
    ]}
  ]
}
